From US5597595A, “Low pH beverage fortified with calcium and vitamin D” (Abbott Laboratories, priority 1995, dated 1997)
Counter-ions that a name gives are not always drawn. Like-named read-outs stand apart in the source and are kept apart here. Blank lines part the entries; values can stand above or below the compound they belong to.

How the values were obtained:
[1] = without aluminum-containing drugs; normally functioning kidneys; cited from earlier work
[2] = rats fed three weeks, right femur calcium; cited from earlier work
[3] = Aluminum content of calcium sources; settings: analysis of commercially available compounds
Excerpt: ^1 Values determined by analysis of commercially available compounds.

[4] = Recovery of vitamin D3 at 0-time; format: physicochemical
Excerpt: The low pH beverage, the vitamin D3 emulsion and the powder beverage are saponified with methanolic potassium hydroxide to destroy the fat and release the vitamin D3 for extraction. The saponified samples are extracted with an ether/pentane mixture and the extracts are evaporated to dryness using nitrogen and reconstituted with iso-octane. Sample extracts are eluted on a cleanup HPLC column (cyanopropyl bonded silica), and column switching is used to transfer a "slice" of the eluant containing vitamin D3 onto an additional HPLC analytical column (aminopropyl bonded silica) for final quantitation. The vitamin D3 peak in the sample is quantitated using a linear regression external standard curve.
To compare the initial processing loss and stability of vitamin D3 of each variable with successive batches, two criteria were routinely measured: (1) % recovery of vitamin D3 at 0-time; and (2) half life of vitamin D3 (t1/2).
The % recovery of vitamin D3 of each batch was calculated by dividing the 0-time vitamin D3 result by the theoretical fortification of each batch times 100%. […] As used herein "theoretical fortification" refers to amount of vitamin D3 added to the product. As used herein "0-time" refers to the time of initial vitamin D3 analysis of the product. […]

[5] = Protocol: In this evaluation solubility was determined by a visual examination.
[6] = in orange juice and apple juice; cited from earlier work
[7] = test system: aciduric and acidophilic organisms like certain varieties of yeasts and molds; settings: pH reduced from 4.5 to 3.0; cited from earlier work
[8] = Acid-base and calcium binding constants of glycerophosphate; format: physicochemical; settings: Henderson-Hasselbalch equation; listed as GP
Excerpt: GaGP binds calcium with an approximate formation constant of 1.7. CaGP, when dissolved in water, dissociates readily to provide "free" calcium ions and protonated glycerophosphate species. […] On the other hand, anions, such as malate, tartrate, propionate or succinate, do provide buffer capacity at pH=3.6, and accordingly require more base or acid than GP for final adjustment of pH.

[9] = weak acid; cited from earlier work
[10] = piglets; cited from earlier work
[11] = Titratable acidity of calcium sources; format: physicochemical; settings: with the exception of calcium chloride
Excerpt: Acidity is desired in the liquid nutritional product of the present invention for several reasons such as: to maintain the calcium salt solubility, to complement flavor, to control microbial growth, and to enhance the role of preservatives, specifically potassium benzoate or sodium benzoate. On the other hand, too much acidity can result in increased tartness and sourness that make the product undesirable from a sensory point of view. […] Titratable acidity is an indication of the total acidity of a beverage.

[12] = low birth weight infants; cited from earlier work
[13] = 600-800 IU/day; elderly, homebound or institutionalized individuals; cited from earlier work

Compound: O=C(O)CC(O)(CC(=O)O)C(=O)O [Calcium Citrate, calcium citrate]
- risk of aluminum toxicity [1]: does not pose a risk of aluminum toxicity
- relative calcium bioavailability as compared to a control [2]: 110%

Compound: [Ca+2].[OH-].[OH-] [Calcium Hydroxide]
- Aluminum Content [3]: 300-400 parts per million (ppm)

- vitamin D3 recovery, in words [4]: did not affect vitamin D3 recovery
Compound: N[C@@H](CS)C(=O)O [Cysteine]

- solubility at 1 month, pH 5.0 [5]: partially Soluble
Compound: O=C(O)[C@H](O)[C@@H](O)[C@H](O)[C@H](O)CO [D-Gluconic-Acid, D-gluconic acid (hemicalcium salt)]

Compound: O=C(CO)[C@@H](O)[C@H](O)[C@H](O)CO [Fructose]
- calcium bioavailability from CCM [6]: promoted positive calcium bioavailability

Compound: O=P([O-])([O-])[O-].O=P([O-])([O-])[O-].[Ca+2].[Ca+2].[Ca+2] [Tricalcium Phosphate, tricalcium phosphate]
- relative calcium bioavailability as compared to a control [2]: 110%

Compound: O=C(O)c1ccccc1 [benzoic acid]
- preservative effect on reducing pH [7]: increased by nearly three times

Compound: O=P(O)(O)OCC(O)CO (centres unmarked) [glycerophosphate]
- effective acid-base buffering pH range / buffering capacity [8]: insignificant buffering capacity at pH=3.6
- pKf [9]: 6.1

- titratable acidity, in words [11]: lowest titratable acidity
Compound: Calcium Glycerophosphate [CaGP]
- effectiveness as a source of calcium in TPN solutions [10]: as effective as calcium gluconate
- effectiveness as a source of calcium in TPN solutions [12]: as effective as calcium gluconate

Compound: vitamin D
- effect on calcium balance and fracture risk [13]: improve calcium balance and reduce fracture risk
